Experimental data: publication PMC11180795 (Frontiers in Pharmacology, 2024)

Legend:
IL-2 = experiment: Th1/Th2 cytokine measurement (Cytometric Bead Array) in LPS-stimulated Raw 264.7 cells, IL-2; format: cell-based, Murine; conditions: compound at 20 µM, vs stimulated and untreated control
Description: (§1) Raw 264.7 cells were seeded at 2 × 10^5 cells/mL in a 48-well microplate and allowed to adhere for 24 h, then treated with LPS 0.1 μg/mL and with compounds (1), (5) and (6) at 20 µM. Untreated cells and indomethacin (10 µM) were used as controls. After 24 h of incubation, the supernatant was collected and the amount of pro-inflammatory Th1 cytokines (IFN-γ, TNF-α, and IL-2) and anti-inflammatory Th2 cytokines (IL-4, IL-6, and IL-10) released measured. The experiment was performed according to the manufacturer’s instructions using BD™ Cytometric Bead Array (CBA) […] Th1/Th2 Cytokine Kit (BD-Biosciences), and data were acquired on a BD LSR Fortessa™ cell analyzer flow cytometer.

COX-1 = target: T1, COX-1 (Mus musculus, UniProt P22437); experiment: Fluorometric COX activity assay in lysate of LPS-treated Raw 264.7 cells, COX-1; format: cell-based, Murine; conditions: compound at 20 µM, LPS 0.1 μg/mL, 24 h; untreated control 85.19 µU/mg
T1 construct: The cell lysate was centrifuged at 12000 x g for 3 min and the supernatant was collected for COX activity assay; endogenous in cells
T1 sequence (P22437 27-602): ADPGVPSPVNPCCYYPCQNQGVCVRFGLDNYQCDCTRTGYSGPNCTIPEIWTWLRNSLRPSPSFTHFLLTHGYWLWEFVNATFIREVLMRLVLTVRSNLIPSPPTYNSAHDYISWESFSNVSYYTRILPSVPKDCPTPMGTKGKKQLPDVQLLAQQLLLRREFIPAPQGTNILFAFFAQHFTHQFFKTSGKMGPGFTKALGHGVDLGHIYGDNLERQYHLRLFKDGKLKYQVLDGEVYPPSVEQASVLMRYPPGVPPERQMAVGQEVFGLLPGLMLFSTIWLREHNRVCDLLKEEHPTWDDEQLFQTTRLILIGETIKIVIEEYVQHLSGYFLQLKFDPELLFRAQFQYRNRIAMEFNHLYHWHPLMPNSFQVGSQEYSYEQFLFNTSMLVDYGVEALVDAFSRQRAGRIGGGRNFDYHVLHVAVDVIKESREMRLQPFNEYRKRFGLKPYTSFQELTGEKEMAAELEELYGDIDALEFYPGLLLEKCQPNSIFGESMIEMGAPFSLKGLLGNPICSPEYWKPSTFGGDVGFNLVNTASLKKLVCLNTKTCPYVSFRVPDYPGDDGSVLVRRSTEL
Description: The fluorometric cyclooxygenase activity assay kit (Biovision) was used to evaluate the activity of COX-1 and COX-2 enzymes. Raw 264.7 cells were seeded at 2 × 10^5 cells/mL in a 48-well microplate, and allowed to adhere for 24 h, then treated with LPS 0.1 μg/mL and compounds (1), (5) and (6) at 20 µM against Raw 264.7 cells. After 24 h the cyclooxygenase enzyme (COX-1 and COX-2) activity assay was performed. Cells were detached with TNE buffer (Tris 40 mM, NaCl 150 mM, EDTA 1 mM) and washed with PBS (1x), then re-suspended in 1 mL PBS (1x), transferred into 1.5 mL tube, and centrifuged at 500 x g for 3 min. The pellet was then re-suspended in 0.5 mL of lysis buffer with a protease inhibitor cocktail, vortexed, and incubated at 4°C for 5 min. The cell lysate was centrifuged at 12000 x g for 3 min and the supernatant was collected for COX activity assay. The COX activity was assessed using the fluorometric cyclooxygenase activity assay kit (Biovision) following the manufacturer’s instructions. The assay includes COX-1 and COX-2 specific inhibitors to differentiate the activity of COX-1 and COX-2 as well as other peroxidases. Indomethacin (10 µM) was used as a standard drug and appropriate controls were also included.

IL-6 = experiment: Th1/Th2 cytokine measurement (Cytometric Bead Array) in LPS-stimulated Raw 264.7 cells, IL-6; format: cell-based, Murine; conditions: compound at 20 µM, LPS 0.1 μg/mL, 24 h; stimulated untreated control 175.96 pg/mL
Description: as §1

| SMILES | effect on IL-2 production (in words) (IL-2) | melting point [°C] | COX-1 activity (COX-1) [µU/mg] | IL-6 level (IL-6) [pg/mL] |
| --- | --- | --- | --- | --- |
| CC(C)=CCC/C(C)=C/C[C@]12C[C@@H](CC=C(C)C)C(C)(C)[C@](CC=C(C)C)(C(=O)C(C(=O)c3ccc(O)c(O)c3)=C1O)C2=O [Compound 6, Guttiferone M] | limited effect | 82 |  |  |
| CC(C)=CCC/C(C)=C/C[C@]12C[C@@H](CC=C(C)C)C(C)(C)[C@](C/C=C(\C)CCC=C(C)C)(C(=O)C(C(=O)c3ccc(O)c(O)c3)=C1O)C2=O [Compound 5, Guttiferone O] | significantly reduces | 103 | 32.28 |  |
| CC(C)=CCc1c2c(c3oc4c(O)cccc4c(=O)c3c1O)C=CC(C)(C)O2 [Compound 1, Ananixanthone] |  |  | 52.55 | 144.25 |
